Measurements taken from patent US7355074B2, “Compounds having aromatic rings and side-chain amide-functionality and a method for transporting monovalent anions across biological membranes using the same” (The University of Maryland, priority 2003, dated 2008).
Marks after values point to notes of the source that are not given here.

Key:
[1] = 1H NMR binding experiment in CDCl3, HCl extraction
Procedure: FIG. 7 illustrates a series of […] spectra (400 mHz, CDCl3, 22° C.) of calixarene tetrabutylamide in the presence of different species: (A) the compound alone (5 mm); (B) the compound with 1 equiv. of Bu4 NCl; (C) the compound after washing CDCl3 solution of the compound with an aqueous solution of 0.5 m HCl; (D) after washing CDCl3 solution of the compound with an aqueous solution of 0.5 M H2SO4.
To obtain evidence for Cl^− binding by 2, ^1H NMR experiments were run in CDCl3 using n-Bu4-NCl and HCl as Cl^− sources. Anion receptors usually show chemical shift perturbation upon anion complexation, particularly for amide NH protons that hydrogen bond to the anion. […] Calix[4]arene tetrabutylamide 2 does, however, bind HCl. Thus, shaking a CDCl3 solution of 2 with aqueous HCl led to disappearance of the amide NH proton and a significant upfield shift of the […] protons (FIG. 4c).

[2] = pH-assisted fluorimetric transport assay with calixarene amides (HPTS-loaded liposomes); assay type: biochemical; settings: for ion transport in sulfate buffers: sodium sulfate-filled LUVs in isotonic solution, up to 50 μM
Procedure: The ability of 1 and 2 to mediate ion flux across a lipid bilayer was studied fluorimetrically. A solution of 1 or 2 was added to a suspension of EYPC large unilamellar vesicles (LUVs) containing the pH-sensitive dye pyranine. An NaOH solution was added to the extravesicular buffer to create a gradient of approximately one pH unit. The resulting electrostatic potential, caused by proton efflux from the liposomes, can be compensated by cation influx or anion efflux, as mediated by the exogenous ligand. Ion transport across the membrane was signaled by the increase in relative fluorescence that accompanied the rise in intravesicular pH.
Liposome Preparation. EYPC HPTS-Containing LUVs, egg yolk 1-α-phosphatidylcholine (EYPC, 60 mg, […]) was dissolved in a CHCl3MeOH mixture, the solution was evaporated under reduced pressure, and the resulting thin film was dried under high vacuum for 2 h. The lipid film was hydrated in 1.2 mL of phosphate buffer (10 mM sodium phosphage, pH=6.4, 75-100 mM MX, M=Na^+, K^+, Cs^+, X=[…], SO4^2−) containing 10 μM HPTS (pyranine 8-hydroxypyrene-1,3,6-trisulfonic acid trisodium salt) for 2 h. The LUV suspension (1 mL) was submitted to high-pressure extrusion at room temperature (2) extrusions through a 0.1 μM polycarbonate membrane afforded LUVs with a diameter of 100 nm). The LUV suspension was separated from extravesicular dye by size exclusion chromatography (SEC) stationary phase: Sephadex G-10, mobile phase:phosphate buffer) and diluted with the same phosphate buffer to give a stock solution with a lipid concentration of 11 mM (assuming 100% of lipid was incorporated into liposomes).
Fluorimetric Transport Assays. pH-Assisted Transport Assays. Typically, 100 μL of HPTS-loaded vesicles (stock solution) was suspended in 1.85 mL of the corresponding buffer and placed into a fluorimetric cell. HPTS emission at 510 nm was monitored with excitation wavelengths at 403 and 460 nm simultaneously. During the experiment, 20 μL of a 0-10 mM THF solution of the compound of interest was added through an injection port, followed by injection of 21 μL of 0.5 M aqueous NaOH. Addition of the NaOH caused a pH increase of approximately 1 pH unit in the extravesicular buffer. Maximal changes in dye emission were obtained at the end of each experiment by lysis of the liposomes with detergent (40 μL of 5% aqueous Triton x100). The final transport trace was obtained as a ratio of the emission intensities monitored at 460 and 403 nm and normalized to 100% of transport.

[3] = liposome potential assay with safranin O; assay type: biochemical
Procedure: FIG. 3 illustrates liposome potential assays. Suspension of EYPC LUVs in phosphate buffer was used (10 m M Nan H3-n PO4, n=1, 2, pH 6.4, 100 m M KCl or 75 m M Na2 H3-n PO4, n=1, 2, pH 6.4, 100 m M KCl or 75 m M NA2 SO4 inside and 100 m M NaCl, 60 nM safranin O, ex 480 nm, em 520 nm, outside). Legend for trace denotes the formation of potential in: —KCl vesicles upon application of valinmycin·Na2SO4 vesicles upon application of 3, —KCl vesicles upon application of 3, —Na2SO4 vesicles upon application of valinomycin.
Analysis of pH changes in the liposomes experiencing a CT gradient. a) Outwardly directed gradient of Cl:HPTS-loaded vesicles (100 μL of the stock solution), filled with a saline phosphate buffer (10 mM sodium phosphate, pH 6.4, 100 mM NaCl) were suspended in 1.9 mL of an isosmotic phosphate sulfate buffer (10 mM sodium phosphate, pH 6.0, 75 mM Na2SO4) and placed into a fluorimetric cell. The emission of HPTS at 510 nm was monitored with excitation wavelengths at 403 and 460 nm simultaneously. During the experiment, 20 μL of a 0-2 mM DMSO solution of the compound of interest was added through an injection port. Intravesicular pH values were obtained as described for pH-stat transport assays. At the end of experiment, the aqueous compartment of liposomes was equilibrated with extravesicular solution by lysis of liposomes with detergent (40 μL of 5% aqueous Triton X100). b) Inwardly directed gradient of Cl:HPTS-loaded vesicles (100 μL of the stock solution), filled with a isoosimomolar sulfate phosphate buffer (10 mM sodium phosphate, pH 6.0, 75 mM Na2SO4) were suspended in 1.9 mL of an isosmotic phosphate saline buffer (10 mM sodium phosphate, pH 6.4, 100 mM NaCl) and placed into a fluorimetric cell. Further analysis was conducted as described for the case of an outwardly directed gradient of […]. Analysis of the electrostatic potential on the surface of liposomes. LUVs (100 μL of stock solution, 100 mM KCl inside and outside or 75 mM Na2SO4 inside and outside) were suspended in 1.9 mL of 100 mM NaCl buffer containing 60 nM safranin O (a potential-sensitive dye). Safranin O emission was monitored at 580 nm with excitation at 520 nm. During the course of the experiment, 20 μL of a 0-0.12 mM DMSO solution of valinomycin or 0-2 mM of 3-8 DMSO solution was added. Experiments were completed by injection of 20 μL of 1 mM aqueous solution of the defect-inductive peptide melittin.

Compound | HCl binding [1] | transport activity when buffer changed from NaCl to Na2SO4 [2] | Initial Pseudo-first Order Transport Rate Constants, Na2SO4 ([2]; 5 μM, 100 mM Na2SO4 inside pH 6.4 and outside pH 7.4, not corrected for unmediated exchange) | Initial Pseudo-first Order Transport Rate Constants, CsCl ([2]; 5 μM, 100 mM NaCl inside pH 6.4, 100 mM CsCl outside pH 7.4, not corrected for unmediated exchange) | Initial Pseudo-first Order Transport Rate Constants, KCl ([2]; 5 μM, 100 mM NaCl inside pH 6.4, 100 mM KCl outside pH 7.4, not corrected for unmediated exchange) | Initial Pseudo-first Order Transport Rate Constants, NaCl ([2]; 5 μM, 100 mM NaCl inside pH 6.4, 100 mM NaCl outside pH 7.4, not corrected for unmediated exchange) | cation selectivity of ion transport ([2]; buffers containing Na, K or Cs) | anion transport selectivity ([2]; chloride versus sulfate buffers) | transport activity ([2]; extravesicular Na, K or Cs chloride, ligand:lipid ratio of 1:100) | ion transport in sulfate buffers [2] | ion transport in sulfate buffers ([2]; listed as calix[4]arene tetrabutylamide) | transmembrane potential formed ([3]; Na2SO4 inside, NaCl outside, safranin O outside, 1 mol %) | time to formation of the transmembrane potential ([3]; Na2SO4 inside, NaCl outside, 1 mol %) [min] | ability to create a transmembrane potential ([3]; Na2SO4 vesicles in NaCl buffer (conditions of the trimer)) | magnitude of the transmembrane potential ([3]; inwardly directed Cl− gradient, compared with valinomycin in liposomes with 100 mM KCl inside, 100 mM NaCl outside)
CCCCNC(=O)COc1c2cccc1Cc1cccc(c1OCC(=O)NCCCC)Cc1cccc(c1OCC(=O)NCCCC)Cc1cccc(c1OCC(=O)NCCCC)C2 [calix[4]arene tetrabutylamide 2, Calix[4]arene tetrabutylamide] | binds HCl | essentially complete loss of transport activity | 1.1^b,d ×10^−3 s^−1 | 7.7^b,c ×10^−3 s^−1 | 6.4^b,c ×10^−3 s^−1 | 6.8^b,c ×10^−3 s^−1 | nonselective toward the cation | pronounced Cl^− over HSO4^− transport selectivity | rapid exchange of intra-and extravesicular electrolytes | not mediated | No significant transport |  |  |  | 
CCCCNC(=O)COc1ccccc1Cc1cccc(Cc2ccccc2OCC(=O)NCCCC)c1OCC(=O)NCCCC [trimer 3, Tris-(N-butyl-2-phenoxyacetamide)] |  |  |  |  |  |  |  |  |  |  |  | stable negative charge inside liposomes | ≤ 2 | created transmembrane potential | comparable to that generated by 0.12 mol % valinomycin
